Publication PMC10977726 (PLOS ONE, 2024)
Read-outs that look alike come from different tables or passages of the source. Where a SMILES comes first, the peptide text is derived from it. Bridges are numbered along the chain shown (N, C = ends).

How the values were obtained:
[1] = biological target: T1, human VEGF-A (Homo sapiens, UniProt P15692); assay: SPR; type: binding
T1 construct: biotin-VEGF-A (8–109, Genentech)

[2] = biological target: T2, human IgG Fc (Homo sapiens, UniProt P01857); assay: SPR; type: binding
T2 construct: Biotin-SP-ChromPure Human IgG, Fc fragment; purchased Jackson Immunoresearch Labs Inc. 009060008

[3] = biological target: T2, human IgG Fc; assay: Phage competition ELISA (synthetic DCP vs its own phage); type: binding; details: Table S12; synthetic DCP competing with its own phage for biotinylated human IgG Fc on neutravidin plate; absorbance 450 nm; averaged from at least three independent runs
[4] = biological target: Ly6E-rat IgG Fc (UniProt P20761+Q16553); assay: SPR; design: species or system human; details: Table S17, first KD value, at least three independent runs, estimated values due to possible non-specific binding, read-out: KD against rat Fc-Ly6E
Chain of Ly6E-rat IgG Fc (Q16553+P20761 fused): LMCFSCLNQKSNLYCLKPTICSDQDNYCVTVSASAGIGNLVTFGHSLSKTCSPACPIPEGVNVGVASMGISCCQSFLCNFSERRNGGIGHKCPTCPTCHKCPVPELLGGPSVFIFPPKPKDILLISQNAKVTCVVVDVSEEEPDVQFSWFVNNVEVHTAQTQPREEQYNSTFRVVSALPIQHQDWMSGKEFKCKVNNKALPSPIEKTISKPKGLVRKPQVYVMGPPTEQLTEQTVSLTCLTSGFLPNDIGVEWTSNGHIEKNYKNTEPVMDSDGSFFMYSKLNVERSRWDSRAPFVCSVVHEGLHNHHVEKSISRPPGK
Experimental: (§1) SPR measurements were carried out on a Biacore S200 instrument (GE Healthcare) with PBS-T (PBS with 0.05% Tween 20, pH 7.4) as the assay buffer as described previously. For kinetic measurements, biotinylated protein was captured on three separate sensor channels of a Series S SA Sensor chip (GE Healthcare). The chip was then blocked with 0.1 mg/mL free biotin. A concentration series of the DCP were injected to the chip. Data were double-referenced by subtracting the signal from a control sensor channel (coated with biotin only) and the signal from a buffer injection. Binding data were fitted using the manufacturer’s software (1:1 or two state binding model for single-cycle kinetics or steady-state model for multi-cycle kinetics).

[5] = biological target: T3, PDGF bb (Homo sapiens, UniProt P01127); assay: SPR; details: Table S16; SPR against PDGF bb; averaged from at least three independent runs; estimated KD values due to possible non-specific binding
T3 construct: purchased R&D Systems BT220-010/CF
T3 sequence (P01127 82-190 limits assumed): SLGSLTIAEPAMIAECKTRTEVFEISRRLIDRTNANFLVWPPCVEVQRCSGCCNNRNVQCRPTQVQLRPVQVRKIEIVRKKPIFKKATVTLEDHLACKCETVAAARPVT
Experimental: as §1

T1 sequence (P15692 214-315): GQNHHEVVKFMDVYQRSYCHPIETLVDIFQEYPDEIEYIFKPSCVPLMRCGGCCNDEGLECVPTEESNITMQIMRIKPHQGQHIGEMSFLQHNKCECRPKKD

## CC[C@H](C)[C@@H]1NC(=O)[C@H]([C@@H](C)O)NC(=O)[C@H](Cc2ccccc2)NC(=O)[C@@H]2CCCN2C(=O)[C@H](Cc2ccccc2)NC(=O)[C@H](Cc2c[nH]c3ccccc23)NC(=O)[C@@H]2CCCN2C(=O)[C@H]([C@@H](C)O)NC(=O)[C@H](CCSC)NC(=O)[C@@H](NC(=O)CN)CSSC[C@@H]2NC(=O)CNC(=O)[C@H](C)NC(=O)[C@H](CC(C)C)NC(=O)[C@@H]3CSSC[C@@H](C(=O)NCC(=O)O)NC(=O)[C@H](Cc4ccccc4)NC(=O)CNC(=O)[C@H](CC(N)=O)NC(=O)[C@@H]4CCCN4C(=O)CNC(=O)[C@H](CSSC[C@H](NC(=O)[C@H](CC(N)=O)NC1=O)C(=O)N[C@@H](CCCCN)C(=O)N[C@@H](CCC(N)=O)C(=O)N[C@@H](CC(=O)O)C(=O)N[C@@H](CO)C(=O)N[C@@H](CC(=O)O)C(=O)N3)NC(=O)[C@H](C(C)C)NC2=O [V-EET-3] (H-GCMTPWFPFTINCKQDSDCLAGCVCGPNGFCG-OH; disulfide 2-23, 13-25, 19-31)
[1]; Table S16, SPR against VEGF-A, averaged from at least three independent runs, estimated KD values due to possible non-specific binding, read-out: KD
  Kd: > 1500 nM

## CSCC[C@@H]1NC(=O)[C@H](CC(C)C)NC(=O)[C@H](CCCNC(=N)N)NC(=O)[C@H](CO)NC(=O)[C@@H]2CSSC[C@@H]3NC(=O)[C@H](CO)NC(=O)CNC(=O)[C@H]([C@@H](C)O)NC(=O)[C@H](CSSC[C@H](N)C(=O)N[C@@H](CCCCN)C(=O)NCC(=O)N[C@@H](CCCCN)C(=O)NCC(=O)N[C@@H](C)C(=O)N[C@@H](CCCCN)C(=O)N2)NC(=O)[C@H](CSSC[C@@H](C(=O)O)NC(=O)[C@H](CCCCN)NC(=O)CNC(=O)[C@H](CO)NC(=O)[C@H](CCCNC(=N)N)NC3=O)NC(=O)[C@H](CC(=O)O)NC(=O)[C@H](Cc2ccc(O)cc2)NC1=O [W T CON, reference compound]
[2]
  Kd: > 20000 nM

## CSCC[C@@H]1NC(=O)[C@H](Cc2ccc(O)cc2)NC(=O)[C@H](Cc2c[nH]c3ccccc23)NC(=O)[C@H](Cc2ccc(O)cc2)NC(=O)CNC(=O)[C@@H](NC(=O)CN)CSSC[C@@H]2NC(=O)CNC(=O)[C@H](C)NC(=O)[C@H](CC(C)C)NC(=O)[C@@H]3CSSC[C@@H](C(=O)NCC(=O)O)NC(=O)[C@H](CCC(=O)O)NC(=O)[C@@H]4CCCN4C(=O)[C@H](CCCCN)NC(=O)[C@@H]4CCCN4C(=O)[C@H](CCCNC(=N)N)NC(=O)[C@H](CSSC[C@H](NC(=O)[C@H](Cc4ccccc4)NC(=O)[C@H](Cc4c[nH]c5ccccc45)NC(=O)[C@H](CCC(N)=O)NC1=O)C(=O)N[C@@H](CCCCN)C(=O)N[C@@H](CCC(N)=O)C(=O)N[C@@H](CC(=O)O)C(=O)N[C@@H](CO)C(=O)N[C@@H](CC(=O)O)C(=O)N3)NC(=O)[C@H](C(C)C)NC2=O [Ig-EET-4]
[3]
  IC50: 823 nM
[2]; Table S12, SPR Biacore S200, PBS-T pH 7.4, biotinylated protein on SA chip, averaged from at least three independent runs, N.A. = no detectable binding, * estimated value due to possible non-specific binding, read-out: KD
  Kd: 948 nM

## CC[C@H](C)[C@@H]1NC(=O)[C@H](C(C)C)NC(=O)[C@H](Cc2c[nH]cn2)NC(=O)[C@H](Cc2ccc(O)cc2)NC(=O)[C@H](CCC(=O)O)NC(=O)[C@H](CCC(N)=O)NC(=O)[C@H](CC(=O)O)NC(=O)[C@H]([C@@H](C)O)NC(=O)[C@H](C)NC(=O)[C@H](Cc2c[nH]c3ccccc23)NC(=O)[C@H](C(C)C)NC(=O)[C@H](C)NC(=O)[C@H](CO)NC(=O)[C@@H]2CSSC[C@@H]3NC(=O)[C@H](CO)NC(=O)CNC(=O)[C@H]([C@@H](C)O)NC(=O)[C@H](CSSC[C@H](N)C(=O)N[C@@H](CCCCN)C(=O)NCC(=O)N[C@@H](CCCCN)C(=O)NCC(=O)N[C@@H](C)C(=O)N[C@@H](CCCCN)C(=O)N2)NC(=O)[C@H](CSSC[C@@H](C(=O)O)NC(=O)[C@H](CCCCN)NC(=O)CNC(=O)[C@H](CO)NC(=O)[C@H](CCCNC(=N)N)NC3=O)NC1=O [V-CON-1]
[1]
  Kd: > 4600 nM

## CC[C@H](C)[C@@H]1NC(=O)[C@H](C)NC(=O)[C@@H](NC(=O)CN)CSSC[C@@H]2NC(=O)CNC(=O)[C@H](C)NC(=O)[C@H](CC(C)C)NC(=O)[C@@H]3CSSC[C@@H](C(=O)NCC(=O)O)NC(=O)[C@H](Cc4ccccc4)NC(=O)CNC(=O)[C@H](CC(N)=O)NC(=O)[C@@H]4CCCN4C(=O)CNC(=O)[C@H](CSSC[C@H](NC(=O)[C@H](CCC(N)=O)NC(=O)[C@H](Cc4ccccc4)NC(=O)[C@H](CCSC)NC(=O)[C@H](Cc4c[nH]c5ccccc45)NC(=O)CNC(=O)[C@H](CCSC)NC(=O)[C@H](Cc4c[nH]cn4)NC(=O)[C@H](Cc4ccc(O)cc4)NC1=O)C(=O)N[C@@H](CCCCN)C(=O)N[C@@H](CCC(N)=O)C(=O)N[C@@H](CC(=O)O)C(=O)N[C@@H](CO)C(=O)N[C@@H](CC(=O)O)C(=O)N3)NC(=O)[C@H](C(C)C)NC2=O [L-EET-7]
[4]
  Kd: 22 nM

## CC[C@H](C)[C@@H]1NC(=O)[C@H](C)NC(=O)[C@H](CO)NC(=O)[C@@H]2CSSC[C@@H]3NC(=O)[C@H](Cc4ccc(O)cc4)NC(=O)CNC(=O)[C@H](Cc4ccccc4)NC(=O)[C@H](CCC(N)=O)NC(=O)[C@H](CO)NC(=O)[C@H](CSSC[C@H](NC(=O)[C@H](CCC(=O)O)NC(=O)CNC(=O)[C@@H](N)C(C)C)C(=O)N[C@@H](C(C)C)C(=O)N[C@@H](CCCNC(=N)N)C(=O)NCC(=O)N[C@@H](CCCNC(=N)N)C(=O)N2)NC(=O)[C@H](CSSC[C@@H](C(=O)NCC(=O)O)NC(=O)[C@H](Cc2ccc(O)cc2)NC(=O)[C@H](CCCCN)NC(=O)[C@@H]2CCCN2C(=O)CNC(=O)[C@H](CCCCN)NC(=O)CNC3=O)NC(=O)[C@H](CO)NC1=O [Ig-AMP-2] (H-VGECVRGRCSAISCCSQFGYCGKGPKYCG-OH; disulfide 4-15, 9-21, 14-28)
[2]; Table S12, SPR Biacore S200, PBS-T pH 7.4, biotinylated protein on SA chip, averaged from at least three independent runs, N.A. = no detectable binding, * estimated value due to possible non-specific binding
  KD: aggregation

## CC[C@H](C)[C@@H]1NC(=O)[C@H](Cc2ccccc2)NC(=O)[C@@H]2CCCN2C(=O)[C@H](CC(N)=O)NC(=O)[C@H](CC(=O)O)NC(=O)[C@H](CC(=O)O)NC(=O)[C@H](Cc2ccccc2)NC(=O)[C@@H](NC(=O)CN)CSSC[C@@H]2NC(=O)CNC(=O)[C@H](C)NC(=O)[C@H](CC(C)C)NC(=O)[C@@H]3CSSC[C@@H](C(=O)NCC(=O)O)NC(=O)[C@H](Cc4c[nH]c5ccccc45)NC(=O)[C@H]([C@@H](C)O)NC(=O)[C@H](CC(=O)O)NC(=O)[C@H](Cc4ccc(O)cc4)NC(=O)[C@H](Cc4c[nH]c5ccccc45)NC(=O)[C@H](CSSC[C@H](NC(=O)[C@H](C)NC1=O)C(=O)N[C@@H](CCCCN)C(=O)N[C@@H](CCC(N)=O)C(=O)N[C@@H](CC(=O)O)C(=O)N[C@@H](CO)C(=O)N[C@@H](CC(=O)O)C(=O)N3)NC(=O)[C@H](C(C)C)NC2=O [P-EET-6] (H-GCFDDNPFIACKQDSDCLAGCVCWYDTWCG-OH; disulfide 2-21, 11-23, 17-29)
[5]
  Kd: > 6700 nM
